Where two headings read alike, the source gives them in different places.

Data on two compounds can be found in patent US20210162078A1, “METHOD FOR DIAGNOSIS OF DO[…] MOVEMENT DISORDERS” (LikeMinds, Inc., priority 2018, published 2021).

The target of data set [1] is T1, DAT (Homo sapiens, UniProt Q01959). The conditions noted are these: DAT sites per one SERT site; package insert; cited from earlier work.
Target sequence in this assay (Q01959 whole entry, species assumed): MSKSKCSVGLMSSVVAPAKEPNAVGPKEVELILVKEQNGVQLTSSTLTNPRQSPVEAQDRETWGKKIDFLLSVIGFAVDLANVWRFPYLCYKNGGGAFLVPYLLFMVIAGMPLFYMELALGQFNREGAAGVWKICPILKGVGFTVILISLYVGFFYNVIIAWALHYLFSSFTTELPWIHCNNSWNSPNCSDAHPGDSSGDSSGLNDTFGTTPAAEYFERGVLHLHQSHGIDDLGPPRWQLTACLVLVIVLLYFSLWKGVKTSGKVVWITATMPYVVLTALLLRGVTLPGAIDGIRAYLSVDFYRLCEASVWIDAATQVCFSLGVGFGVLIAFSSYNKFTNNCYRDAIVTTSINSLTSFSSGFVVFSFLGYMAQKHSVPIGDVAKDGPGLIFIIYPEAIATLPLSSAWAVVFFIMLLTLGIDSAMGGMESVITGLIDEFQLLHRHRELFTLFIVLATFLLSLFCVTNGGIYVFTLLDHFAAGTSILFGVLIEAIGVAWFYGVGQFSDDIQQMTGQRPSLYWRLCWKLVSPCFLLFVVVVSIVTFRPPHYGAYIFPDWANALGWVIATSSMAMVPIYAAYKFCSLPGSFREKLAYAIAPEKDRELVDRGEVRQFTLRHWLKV
Data set [2] has as its target T1, DAT. Also noted: host or cells: brain tissue in vivo. The conditions noted are these: after binding to transporters other than DAT; package insert; cited from earlier work.
Target sequence in this assay (Q01959 whole entry): as the sequence (Q01959 whole entry, species assumed) above
In data set [3] the target is T2, DAT in the striatum (Homo sapiens, UniProt Q01959).
T2 construct: from tissue; host or cells: striatum of living subjects (in vivo SPECT)
Conditions: cited from earlier work; for time after injection to stable binding to striatal DAT: DaTscan, IV injection, SPECT.

Data set [4] concerns the target T2, DAT in the striatum. The conditions noted are these: imaging time 15 min to 45 min post-administration, cited from earlier work.
The nature of data set [5]: Clinical safety and radiation dose of radiolabeled DaT2020 bolus injection. Format: in vivo, human. Here is the method: Such buffers include, but are not limited to, ethanol (solvent), sodium hydroxide and acetic acid (pH adjustment), sodium chloride injection (isotonic vehicle). The formulation to be administered as a bolus injection has been shown in sponsored clinical trials to be safe containing a dose of up to about 8 mCi to 10 mCi of radiolabeled DaT2020 and delivered in a total volume of about 2.5 mL to about 5 mL.
The radioactivity of the dose of radiolabeled DaT2020 or of its radiolabeled derivatives, can be determined one with skill in the art, e.g. by a nuclear medicine imaging technician. In addition, the total radioactivity of the actual administered dose is of relevance and not the volume administered to achieve this dose. The exact radioactive dose of the tracer administered is determined by calculating the difference between the radioactivity in the syringe and delivery system before and after injection. After the dose is delivered, the syringe is filled with a volume of saline equal to the administered dose volume. The syringe content is recounted under the same conditions as used to determine the dose; separately. […]

Data set [6] deals with T2, DAT in the striatum. In words: DaT2020 SPECT study: striatal binding ratio over time after IV injection. Format: in vivo. Conditions: for specific binding ratio reached, as % of average stable binding ratio: within six min after injection. Here is the method: The results obtained from administering lower doses of radiolabeled_DaT2020 (5.3 mCi) were modeled from the data obtained using the 8 mCi dose and a 3-headed camera. Within six min after injection of radiolabeled DaT2020, the specific binding ratios of Parkinson's patients and the healthy volunteer group had reached 90% and 74% of the average stable binding ratio of 1.32 and 1.64, respectively, during the previously determined imaging time of 15 min to 45 min post-administration. In contrast, DaTscan takes least 180 min to reach a stable binding ratio.
The subjects used in the study were healthy volunteers (HV) and those with at least mild Parkinson's disease (PD) (Seibyl at al. (2008) “ALTROPANE SPECT in Parkinson's disease patients and healthy controls” (poster). Abs. Movement Dis. Soc. 12th Internat. Con. Parkinson's Disease and Movement Disorders). All subjects were evaluated by a clinician using validated measures to determine if there is evidence of a movement disorder. Any subject using an anti-parkinsonian medication abstained from its use for at least 12 hr prior to the movement disorder evaluation. […]
ROIs were determined using data obtained from about 24 min to 30 min after dose administration, with individual subject ROI sampling of the left and right caudate and putamen and an occipital background region. […]
To determine the striatal binding ratios (SBR) extract total counts within the ROI, total volume, and count density (counts/voxel) from each scan. SBR is calculated as the density of counts (counts per voxel per min) in the striatal region minus the counts in the occipital cortex (background) divided by the density of counts in the occipital background region. The mean striatal SBR scores are calculated as the mean of the left and right caudate and putamen SBR scores.
DaT2020 SBR data over time were abstracted by reading the graphics showing SBR over time for PD patients (Seibyl and Merck, ibid., Appendix 1) (the first scan of two was read), and in Appendix 2 for healthy volunteers (Seibyl and Merck, ibid., Appendix 2).

The target of data set [7] is T1, DAT. Nature of the data set: Binding selectivity of DaT2020 for DAT over SERT.
Target sequence in this assay (Q01959 whole entry, species assumed): as above

T2 sequence (Q01959 whole entry): as the sequence (Q01959 whole entry, species assumed) above

For the compound `COC(=O)[C@H]1[C@@H](c2ccc(I)cc2)C[C@@H]2CC[C@H]1N2CCCF` [DaTscan, N-ω-fluoropropyl-2β-carbomethoxy-3β-(4-iodophenyl) nortropane], the “DAT sites bound for every one SERT site” value in data set [1] is “two to three”. In data set [2], the “DaTscan available for DAT transporter binding in the brain tissue” value is given as “about 7%”. Also, the “time after injection to stable binding to striatal DAT” value in data set [3] and in data set [3] (listed as [^123I]-FP-CIT) was 3 h in each case. The “time for which binding remains stable” value in data set [3] (after reaching stable binding 3 hr post-injection) is 3 h.
Turning to `COC(=O)[C@H]1[C@@H](c2ccc(F)cc2)C[C@@H]2CC[C@H]1N2C/C=C/I` [DaT2020, E-2β-carbomethoxy-3β-(4-fluorophenyl)-N-(3-iodo-E-allyl) nortropane], the entries for the “average stable binding ratio (SBR)” value in data set [4] (Parkinson's patients) and in data set [4] (healthy volunteer group) were 1.32 and 1.64, respectively. Moreover, in data set [5] (dose of up to about 8 mCi to 10 mCi, total volume about 2.5 mL to about 5 mL), the “safety of bolus injection in sponsored clinical trials” value is on record as “safe”. Further, the effective dose entry in data set [5] (for 5 mCi of radiolabeled DaT2020) is listed as “approximately 4.3 mSv”. Moreover, the “specific binding ratio reached, as % of average stable binding ratio” value in data set [6] (Parkinson's patients) was 90%; in data set [6] (healthy volunteer group) it was 74%. Also, the “time after administration at which stable binding to DAT occurs” value in data set [6] (radiolabeled DaT2020, IV injection, SPECT) was found to be 15 min. The “binding selectivity for DAT over SERT” value in data set [7] was found to be 28 fold.
